Results as given in patent publication US10765729B2, “Tumor antigen peptide” (Sapporo Medical University, priority 2014, dated 2020).
Several values for one entry are separate records, joined by “and”; a condition that tells them apart may be missing. Identical values can stand only once. Where no end group is shown, it is not given here.

Key:
[1] = test system: peripheral blood mononuclear cells derived from HLA-A*02:01-positive healthy individuals; assay: CTL inducibility using human peripheral blood mononuclear cells, IFNγ ELISPOT; type: cell-based; details: peptide 20 μg/mL, IL-2 100 U/mL, about 2 weeks, FIGS. 39-43
Experimental: (§1) Subsequently, approximately 1×10^5 cells were plated in each well of a 96-well U bottom plate, and cultured at 37° C. under 5% CO2. At this time, human IL-2 and peptide were added at 100 U/mL and 20 μg/mL, respectively. The medium was exchanged every 3 or 4 days and an IFNγ ELISPOT assay was carried out after about 2 weeks. On the day before the assay, ELISPOT plates were treated with anti-IFNγ antibody, and on the day of assay, they were blocked with RPMI1640 medium containing 10% fetal calf serum at room temperature for about 2 hours. The human peripheral blood mononuclear cells in the culture were washed with an AIM-V medium containing 10% human-derived serum and plated in each well of the blocked ELISPOT plate. After culturing at 37° C. under 5% CO2 for 16 to 18 hours, the supernatant was removed and the ELISPOT plates were subjected to color development according to the attached protocol. The number of colored spots was measured with an ELISPOT analyzer manufactured by Cellular Technology Limited. […] In addition, black bars indicate the number of spots detected under peptide stimulation conditions, and white bars indicate the number of spots (controls) detected under no peptide pulse conditions.

[2] = test system: peripheral blood mononuclear cells derived from HLA-A*24:02-positive healthy individuals; assay: as above; type: cell-based; details: peptide 20 μg/mL, IL-2 100 U/mL, about 2 weeks, FIGS. 44, 45
Experimental: as §1

[3] = molecular target: HLA-A*24:02 (Homo sapiens, UniProt P04439, D101N/D140Y/D185E/E176V/E190D/F33S/G103R/G107R/I119L/I121M/I306V/K335N/L105A/L180Q/L300P/N151K/N90K/Q86E/Q94H/R106L/R138H/R89G/T104I/T345S/V100E/W191G/Y123F); type: binding
[4] = test system: T2-A24 cells; assay: Cytotoxicity test (LDH release) of CTLs toward peptide-pulsed T2-A24 cells; type: cell-based, human; details: peptide pulse 20 μg/mL; E/T ratio 1, 3, 9; CTL induced by IV9; FIG. 10
Experimental: (§2) T2-A24 cells, SW480-SP, SW480-MP, and K562 HLA-class I-deficient leukemia cells (obtained from ATCC) were suspended in 10% FBS-supplemented RPMI at a cell concentration of 1×10^6 cells/mL. Washing was carried out three times with 10 mL of 10% FBS-supplemented RPMI.
(§3) T2-A24 cells were pulsed with IV9 peptide and HIV584-594 peptide as a positive control for T2-A24 cell binding, at a concentration of 20 μg/mL at room temperature for 1 hour. As a negative control, a group without peptide pulses was used. With regard to experimental group of T2-A24 cells, three groups were defined: [1] no peptide pulse, [2] HIV584-594 peptide pulse, and [3] IV9 peptide pulse. In addition, K562 was pulsed with IV9 peptide under the same conditions. Both SW480-SP and SW480-MP groups were used without peptide pulses. After the peptide pulse, the cells were washed twice with PBS. The cells of each group were plated on each well at 1×10^5 cells/100 μL.
(§4) Respective numbers of effector cells (CTLs) were plated on each well so that the effector/target ratio (E/T ratio) became 1, 3, and 9. Effector cells were plated as a spontaneous release well. To the maximum release well, 4% of NP-40-added PBS was added to the target cells so that the final concentration became 2%. […] After 10 minutes, fluorescence intensity of each well was measured by Terra Scan. Cytotoxic activity was calculated using the equation below. […]

[5] = test system: SW480-MP; assay: Cytotoxicity test (LDH release) of CTLs toward SW480-MP without peptide pulse; type: cell-based, human; details: CTL induced by IV9, FIG. 10
Experimental: as §2, §3, §4

[6] = test system: human colon cancer cell line (SW480); assay: Detection of SP fraction by Hoechst 33342/PI flow cytometry; type: cell-based; details: verapamil final concentration 75 μM; Hoechst 33342 5.0 μM; FIG. 1
Experimental: 5% fetal calf serum (FCS (HyClone Laboratories))-supplemented DMEM (Sigma-Aldrich) medium was prepared as a medium and warmed at 37° C. Verapamil (Sigma-Aldrich) was adjusted to 50 mM and diluted to 5 mM using the 5% FCS-supplemented DMEM medium. Hoechst 33342 (Lonza) was adjusted to 250 μg/mL using the 5% FCS-supplemented DMEM medium. DNase I (Qiagen) was adjusted to 1 mg/mL using DDW and sterilized by filtration using a 0.2 μm filter.
A human colon cancer cell line (SW480 (ATCC)) was suspended in 4 mL of the 5% FCS-supplemented DMEM medium, and the number of cells was counted. Furthermore, the 5% FCS-supplemented DMEM medium was added so as to adjust the cell concentration to 10×10^6 cells/mL, thus giving a sample. Using part of the sample, dispensing was carried out; verapamil was not added to a main sample (verapamil(−) sample), and verapamil was added to a secondary sample so as to give a final concentration of 75 μM (verapamil(+) sample). Subsequently, the Hoechst 33342 solution was added to the verapamil(+) sample and the verapamil(−) sample so as to give a Hoechst 33342 final concentration of 5.0 μM. […]
First, cells in the verapamil(−) sample were analyzed, and cells in a cell group (side population (SP)) having low emission intensity compared with a main cell group (main population (MP)) were detected (FIG. 1).

[7] = molecular target: T1, HLA-A*02:01 (Homo sapiens, UniProt P04439, D140Y/D185E/D98H/E176V/E277Q/G131W/G231S/I119V/I121R/I166T/I218V/L300P/L318F/N151K/N90K/P208A/P217A/Q86G/Q94H/R138H/R169H/T345S); type: binding
T1 construct: T2 cells can usually only express a low level of empty MHC class I molecules on the cell surface; endogenous in cells; host or cells: T2-A24 cells (human lymphoblastoid T2 cells)

With 6 (KILCDRGAKL) [compound 6] the “induction of peptide-specific CTLs from PBMC” value (“induction” below) [1] was “able to induce peptide-specific CTLs”.

For 5 (SVLFGHVECL) [compound 5], the “induction” value [1] was “able to induce peptide-specific CTLs” and the “induction” value [2] was “has CTL inducibility in both HLA-A02 type and HLA-A24 type subjects”.

“RGYVYQGL [HLA-A*24:02 Negative control, reference compound]” was tested, and the “HLA-A*24:02 Negative control (MFI)” value [3] was 1.0.

With 20 (HVLMHMMLEA) [compound 20] the “MFI HLA-A24” value [3] was 1.3.

With 23 (YLLLEPEGII) [compound 23] the “MFI HLA-A24” value [3] was 1.4.

In the case of 8 (HFGLSELVAFYV) [compound 8], the “induction” value [1] is reported as “able to induce peptide-specific CTLs” and the “induction” value [2] is reported as “has CTL inducibility in both HLA-A02 type and HLA-A24 type subjects”.

With IYPPQFHKV [SEQ ID No. 3] the “cytotoxic activity of CTLs toward peptide-pulsed T2-A24 cells” value [4] was “high cytotoxic activity” and the “cytotoxic activity of CTLs toward SW480-MP” value [5] was “only a similar cytotoxic activity as [1] no peptide pulse group and [2] HIV peptide pulse group”.

In the case of 34 (FEVEDENMVL) [compound 34], the “MFI HLA-A24” value [3] is reported as 1.4.

`COc1ccc(CCN(C)CCCC(C#N)(c2ccc(OC)c(OC)c2)C(C)C)cc1OC` (centres unmarked) [verapamil, Verapamil] was tested, and the “SP cells in flow cytometry” value [6] was “SP cells disappeared”.

41 (LLLNHGAARI) [compound 41] was tested, and the “MFI HLA-A02” value [7] was 1.3.

“EADPTGHSY [HLA-A*02:01 Negative control, MAGE-1161-169 peptide as an HLA-A02-negative control, reference compound]” was tested, and the “HLA-A*02:01 Negative control (MFI)” value [7] was 1.0.

For “RYLRDQQLL [HLA-A*24:02 Positive control, HIV584-592 peptide as an HLA-A24-positive control, reference compound]”, the “HLA-A*24:02 Positive control (MFI)” value [3] was 2.6 and 3.3 and 2.8.

For 4 (HLSVLFGHV) [compound 4], the “induction” value [1] was “able to induce peptide-specific CTLs”.

17 (SILCAKQLV) [compound 17] was tested, and the “MFI HLA-A24” value [3] was 1.3.

9 (CYSLSGHTAL) [compound 9] was tested, and the “induction” value [1] was “able to induce peptide-specific CTLs”.

For 40 (QYVLKVTSV) [compound 40], the “MFI HLA-A24” value [3] was 1.3.

In the case of 28 (RIYPPQFHKV) [compound 28], the “MFI HLA-A02” value [7] is reported as 1.4.
